Reference: ChEMBL document CHEMBL1862790, “Optimisation of fenarimol series for the treatment of Chagas disease”
“And” between values parts separate entries of the source, which are not always exact repeats. Equal values may be shown once.

Assays:
[1] = DNDI: Cytotoxicity against L-6 rat myoblasts from skeletal muscle cells; conditions: L6 rat skeletal muscle myoblast cells
Trypanosoma cruzi [2] = assay: microbe, parasite or virus in culture; type: functional, organism-based, Tulahuen LacZ, Clone C4
Trypanosoma cruzi [3] = assay: microbe, parasite or virus in culture; type: functional, Tulahuen LacZ, Clone C4
[4] = Trypanosoma cruzi, Tulahuen LacZ, Clone C4

Row | Compound | IC50 ([1]; IC50) [nM] | IC50 (Trypanosoma cruzi [2]) | IC50 (Trypanosoma cruzi [2]; [4]) [nM] | IC90 (Trypanosoma cruzi [3]) | IC90 (Trypanosoma cruzi [3]; [4]) [nM] | IC50 [1] [nM]
1 | CC(C)(C)NC(=O)N1CCC(NC(c2ccc(C(F)(F)F)cc2)c2cccnc2)CC1 (stereo unspecified) | > 100000 | 61 nM | 48 | 207 nM | 402 | 
2 | OC(c1ccc(Cl)cc1)(c1ccc(C(F)(F)F)cc1)c1ccc2ncccc2c1 (stereo unspecified) | 56300 |  | 2840 |  | 7490 | 
3 | Cc1oncc1C(=O)N1CCC(NC(c2ccc(C(F)(F)F)cc2)c2cccnc2)CC1 (stereo unspecified) | > 100000 |  | 69.5 |  | 470 | 
4 | O=C(NC1CCN(C(c2ccc(C(F)(F)F)cc2)c2cnccn2)CC1)c1ccc(C(F)(F)F)cc1 (stereo unspecified) | 57400 |  | 100 |  | 300 | 
5 | Fc1ccc(N2CCC(NC(c3cccnc3)c3ccc(Cl)cc3F)CC2)cc1Cl (stereo unspecified) | 54500 |  | 28.5 |  | 72 | 
6 | OC(c1ccc(Cl)cc1)(c1ccccn1)c1ccccc1Cl (stereo unspecified) |  |  | 27400 |  | 90000 | > 100000
7 | CS(=O)(=O)N1CCN(C(c2cccnc2)c2ccc(Cl)cc2F)CC1 (stereo unspecified) | > 100000 | 35 nM and 46 nM |  | 160 nM and 110 nM |  | 
8 | N#Cc1ccc(C(c2cccnc2)N2CCC(NC(=O)c3ccc(C(F)(F)F)cc3)CC2)cc1 (stereo unspecified) | 65700 |  | 20.5 |  | 76.5 | 
9 | O=C(c1cscn1)N1CCC(NC(c2cccnc2)c2ccc(Cl)cc2F)CC1 (stereo unspecified) | > 100000 |  | 241 |  | 832 | 
10 | CC(C)(C)NC(=O)N1CCC(NC(c2ccc(Cl)cc2)c2cccnc2)CC1 (stereo unspecified) | > 100000 |  | 60 |  | 230 | 
11 | CCC(=O)N1CCN(C(c2cncnc2)c2ccc(Cl)cc2F)CC1 (stereo unspecified) | > 100000 |  | 440 |  | 860 | 
12 | CC(=O)N1CCC(NC(c2ccc(C(F)(F)F)cc2)c2cnccn2)CC1 (stereo unspecified) | > 100000 |  | 3050 |  | 7810 | 
13 | O=C(NC1CCCCC1)N1CCC(NC(c2ccc(Cl)cc2)c2cccnc2)CC1 (stereo unspecified) | > 100000 |  | 30 |  | 100 | 
14 | CCNC(=O)NC1CCN(C(c2ccc(Cl)cc2)c2cccnc2)CC1 (stereo unspecified) | > 100000 |  | 97 |  | 300 | 
15 | O=C(NC1CC1)N1CCN(C(c2cncnc2)c2ccc(C(F)(F)F)cc2F)CC1 (stereo unspecified) | > 100000 |  | 490 |  | 792 | 
16 | O=S(=O)(NC1CCN(C(c2cnccn2)c2ccc(F)cc2F)CC1)c1ccccc1 (stereo unspecified) | 67700 |  | 470 |  | 880 | 
17 | O=S(=O)(c1ccc(Cl)cc1)N1CCC(NC(c2cnccn2)c2ccc(F)cc2F)CC1 (stereo unspecified) | 77900 |  | 530 |  | 900 | 
18 | NC(=O)c1cccc(C(O)(c2cncnc2)c2ccc(Cl)cc2F)c1 (stereo unspecified) | > 100000 |  | 86.5 |  | 426 | 
19 | Fc1cnc(N2CCC(NC(c3ccc(Cl)cc3)c3cccnc3)CC2)nc1 (stereo unspecified) | 58200 |  | 34 |  | 88 | 
20 | CS(=O)(=O)NC1CCN(C(c2ccc(C(F)(F)F)cc2)c2cnccn2)CC1 (stereo unspecified) | > 100000 |  | 1220 |  | 3020 | 
21 | O=C(NC1CCN(C(c2cncnc2)c2ccc(Cl)cc2F)CC1)c1ccc(F)cc1 (stereo unspecified) | 60100 |  | 21.5 |  | 114 | 
22 | N#Cc1ccc(C(c2cccnc2)N2CCC(NC(=O)c3cc[nH]n3)CC2)cc1 (stereo unspecified) | > 100000 |  | 448 |  | 917 | 
23 | Cc1cc(C(=O)NC2CCN(C(c3ccc(C#N)cc3)c3cccnc3)CC2)no1 (stereo unspecified) | > 100000 |  | 50 |  | 103 | 
24 | Cn1cc(C(=O)N2CCC(NC(c3ccc(C(F)(F)F)cc3)c3cccnc3)CC2)c(C(F)(F)F)n1 (stereo unspecified) | 77100 |  | 99.5 |  | 280 | 
25 | OC1CCN(C(c2ccc(C(F)(F)F)cc2)c2cnccn2)CC1 (stereo unspecified) | > 100000 |  | 6520 |  | > 10000 | 
26 | CC(C)(C)NC(=O)N1CCC(NC(c2ccc(C(F)(F)F)cc2)c2cncs2)CC1 (stereo unspecified) | > 100000 |  | 68 |  | 128 | 
27 | OC(c1ccc(Cl)cc1)(c1ccc(Cl)cc1)c1ccco1 | 48000 |  | > 10000 |  | > 10000 | 

Row | Compound | IC50 ([1]; IC50) [nM] | IC50 (Trypanosoma cruzi [2]) | IC50 (Trypanosoma cruzi [2]; [4]) [nM] | IC90 (Trypanosoma cruzi [3]) | IC90 (Trypanosoma cruzi [3]; [4]) [nM] | IC50 [1] [nM]
28 | N#Cc1ccc(C(c2cccnc2)N2CCC(NC(=O)c3c(F)cccc3C(F)(F)F)CC2)cc1 (stereo unspecified) | > 100000 |  | 4.48 |  | 10.4 | 
29 | CC(C)(C)OC(=O)NC1CCN(C(c2ccc(Cl)cc2)c2cncnc2)CC1 (stereo unspecified) | > 100000 |  | 60 |  | 260 | 
30 | O=C(NC1CCN(C(c2ccc(C(F)(F)F)cc2)c2cccnc2)CC1)c1ccccc1 (stereo unspecified) | 62600 |  | 8.5 |  | 57.5 | 
31 | O=C(NC1CCCCC1)c1cccc(C(O)(c2ccc(Cl)cc2)c2cccnc2)c1 (stereo unspecified) | 52300 |  | 60 |  | 210 | 
32 | Fc1cnc(N2CCC(NC(c3cccnc3)c3ccc(Cl)cc3F)CC2)nc1 (stereo unspecified) | 73300 |  | 32 |  | 93.5 | 
33 | OC(c1ccc(Cl)cc1)(c1cncnc1)c1cccc(Cl)c1 (stereo unspecified) | 57200 |  | 513 |  | 10000 | 
34 | Cc1cc(C(=O)N2CCC(NC(c3ccc(C(F)(F)F)cc3)c3cccnc3)CC2)nn1C (stereo unspecified) | 58600 |  | 66.5 |  | 268 | 
35 | Cc1ccncc1C(O)(c1ccc(Cl)cc1)c1cncnc1 (stereo unspecified) | > 100000 |  | 253 |  | 570 | 
36 | Nc1nc(N2CCN(C(c3cccnc3)c3ccc(C(F)(F)F)cc3F)CC2)no1 (stereo unspecified) | 57800 |  | 36.5 |  | 92 | 
37 | Fc1cc(Cl)ccc1C(NC1CCN(c2c(F)cccc2F)CC1)c1cccnc1 (stereo unspecified) | 56300 |  | 12.5 |  | 33.5 | 
38 | OC(c1cncnc1)(c1ccccn1)c1ccccc1Cl (stereo unspecified) | > 100000 |  | 7330 |  | 15500 | 
39 | N#Cc1ccc(C(c2cccnc2)N2CCC(NC(=O)c3ccccc3C(F)(F)F)CC2)cc1 (stereo unspecified) | > 100000 | 4 nM | 4.5 | 15.5 nM | 12 | 
40 | Fc1ccc(N2CCC(NC(c3ccc(Cl)cc3)c3cccnc3)CC2)cc1C(F)(F)F (stereo unspecified) | 52300 |  | 24 |  | 63 | 
41 | CC(C)(C)C(=O)N1CCN(C(c2ccc(C#N)cc2)c2cccnc2)CC1 (stereo unspecified) | > 100000 |  | 254 |  | 696 | 
42 | OC(c1ccc(C(F)(F)F)cc1)(c1cncnc1)c1ccccc1Cl (stereo unspecified) | > 100000 |  | 250 |  | 20000 | 
43 | N#Cc1ccc(C(c2cccnc2)N2CCC(NC(=O)c3cccc(F)c3)CC2)cc1 (stereo unspecified) | > 100000 |  | 39 |  | 368 | 
44 | O=C(C1CC1)N1CCC(NC(c2cnccn2)c2ccc(F)cc2F)CC1 (stereo unspecified) | > 100000 |  | 1380 |  | 3860 | 
45 | OC(c1ccc(Cl)cc1)(c1cccnc1)c1cnc(Cl)s1 (stereo unspecified) | > 100000 |  | 490 |  | > 1000 | 
46 | CC(C)C(=O)N1CCN(C(c2ccc(Cl)cc2)c2cncnc2)CC1 (stereo unspecified) | > 100000 |  | 370 |  | 940 | 
47 | CC(C)(C)c1cc(N2CCC(NC(c3ccc(Cl)cc3)c3cccnc3)CC2)[nH]n1 (stereo unspecified) | 50200 |  | 19 |  | 47 | 
48 | CCCCC(O)(c1ccc(Cl)cc1)c1cccnc1 (stereo unspecified) | 60900 |  | 29 |  | 103 | 
49 | Cc1ccc(C(O)(c2ccc(Cl)cc2)c2cncnc2)cn1 (stereo unspecified) | > 100000 |  | 435 |  | > 1000 | 
50 | Cc1ncsc1C(=O)NC1CCN(C(c2ccc(C#N)cc2)c2cccnc2)CC1 (stereo unspecified) | > 100000 |  | 71 |  | 202 | 
51 | CCC(=O)N1CCN(C(c2ccc(Cl)cc2)c2cncnc2)CC1 (stereo unspecified) | > 100000 |  | 850 |  | 4830 | 
52 | OC(c1cccnc1)(c1cncc(F)c1)c1ccc(Cl)cc1F (stereo unspecified) | > 100000 |  | 228 |  | 868 | 
53 | NC(=O)c1cccc(C(O)(c2ccc(Cl)cc2)c2cncnc2)c1 (stereo unspecified) | > 100000 |  | 920 |  | 2780 | 
54 | N#Cc1ccc(C(c2cccnc2)N2CCC(NC(=O)c3cscn3)CC2)cc1 (stereo unspecified) | > 100000 |  | 174 |  | 298 | 
